The results in this text go back to patent publication US7071193B2, “7-amino-2-alkylthiopteridin-4-yl-amines for the treatment of chemokine-related diseases” (AstraZeneca AB, priority 2000, dated 2006).

With `C[C@H](CO)Nc1nc(SCc2cccc(Cl)c2F)nc2nc(N)cnc12` [Example 13, (2R)-2-[[7-amino-2-[[(3-chloro-2-fluorophenyl)methyl]thio]-4-pteridinyl]amino]-1-propanol], the melting point (as a rule, the temperature, or range, at which the solid turns liquid) is 224 to 226 °C. Consider `Nc1cnc2c(NC(CO)CO)nc(SCc3cccc(F)c3F)nc2n1` [Example 2, 2-[[7-amino-2-[[(2,3-difluorophenyl)methyl]thio]-4-pteridinyl]amino]-1,3-propanediol], for which the melting point lay within 251 to 253 °C. Consider `CC[C@H](CO)Nc1nc(SCc2cccc(F)c2F)nc2nc(N)cnc12` [Example 4, (2R)-2-[[7-Amino-2-[[(2,3-difluorophenyl)methyl]thio]-4-pteridinyl]amino]-1-butanol], for which the melting point is 185 to 189 °C. The same measure for `CC(CO)(CO)Nc1nc(SCc2cccc(F)c2F)nc2nc(N)cnc12` [Example 5, 2-[[7-Amino-2-[[(2,3-difluorophenyl)methyl]thio]-4-pteridinyl]amino]-2-methyl-1,3-propanediol]: 220 to 227 °C.
